Experimental findings from patent US20230365592A1 (Agios Pharmaceuticals, Inc., priority 2022, published 2023) are described below.

The structures appear in SMILES notation.

The experiment deals with T1, human PAH with the R408W mutation (Homo sapiens, UniProt P00439, R408W).
T1 construct: expressed in transfected cells
T1 sequence (P00439 1-452 R408W): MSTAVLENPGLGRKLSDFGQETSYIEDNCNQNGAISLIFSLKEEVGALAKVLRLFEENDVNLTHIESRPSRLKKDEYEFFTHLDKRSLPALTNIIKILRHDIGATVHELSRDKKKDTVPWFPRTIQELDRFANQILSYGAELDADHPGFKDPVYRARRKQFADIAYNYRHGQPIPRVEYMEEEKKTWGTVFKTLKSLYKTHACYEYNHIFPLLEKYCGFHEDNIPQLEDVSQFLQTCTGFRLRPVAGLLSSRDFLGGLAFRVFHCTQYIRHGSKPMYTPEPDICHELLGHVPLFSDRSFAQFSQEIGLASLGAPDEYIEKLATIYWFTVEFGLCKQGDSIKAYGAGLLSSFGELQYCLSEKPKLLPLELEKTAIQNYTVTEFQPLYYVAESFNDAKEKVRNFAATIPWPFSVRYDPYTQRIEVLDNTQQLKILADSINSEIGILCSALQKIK
Kind of experiment: Cell Based Phenylalanine Flux Assay.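 Note: after compound treatment, cells received sepiapterin plus isotope-labelled Phenylalanine for 4 hours, then labelled Tyrosine in the medium was quantified, 10-point 2-fold dilution series run in duplicate.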 The settings on record: A375 cells expressing human PAH R408W; 24 hrs compound incubation; 13C-Tyrosine by LC-MS; average where tested multiple times; read-out: AC50.
For the molecule `CC(C)c1cccn2nc([C@H]3c4nc[nH]c4CCN3c3nnc(-c4cccnc4)o3)cc12` [Example 2260, (R)-2-(4-(4-isopropylpyrazolo[1,5-a]pyridin-2-yl)-1,4,6,7-tetrahydro-5H-imidazo[4,5-c]pyridin-5-yl)-5-(pyridin-3-yl)-1,3,4-oxadiazole], the AC50 was more than 5 µM.
In the case of `Cc1cccnc1-c1nnc(N2CCc3[nH]cnc3[C@@H]2c2cc3ccccn3n2)o1` [Example 2266, (R)-2-(3-methylpyridin-2-yl)-5-(4-(pyrazolo[1,5-a]pyridin-2-yl)-1,4,6,7-tetrahydro-5H-imidazo[4,5-c]pyridin-5-yl)-1,3,4-oxadiazole], the AC50 was more than 5 µM.
Consider `Cc1cccnc1-c1nnc(N2CCc3[nH]cnc3[C@H]2c2cc3ccccn3n2)o1` [Example 2267, (S)-2-(3-methylpyridin-2-yl)-5-(4-(pyrazolo[1,5-a]pyridin-2-yl)-1,4,6,7-tetrahydro-5H-imidazo[4,5-c]pyridin-5-yl)-1,3,4-oxadiazole], for which the AC50 was less than 0.5 µM.
In the case of `Cc1cccnc1-c1nnc(N2CCc3[nH]cnc3[C@@H]2c2cc3c(C)cccn3n2)o1` [Example 2268, (R)-2-(4-(4-methylpyrazolo[1,5-a]pyridin-2-yl)-1,4,6,7-tetrahydro-5H-imidazo[4,5-c]pyridin-5-yl)-5-(3-methylpyridin-2-yl)-1,3,4-oxadiazole], the AC50 was more than 5 µM.
On to `Cc1cccnc1-c1nnc(N2CCc3[nH]cnc3[C@H]2c2cc3c(C)cccn3n2)o1` [Example 2269, (S)-2-(4-(4-methylpyrazolo[1,5-a]pyridin-2-yl)-1,4,6,7-tetrahydro-5H-imidazo[4,5-c]pyridin-5-yl)-5-(3-methylpyridin-2-yl)-1,3,4-oxadiazole], for which the AC50 was less than 0.5 µM.
For `FC(F)(F)Oc1cccn2nc([C@@H]3c4nc[nH]c4CCN3c3ncccn3)cc12` [Example 2270, (S)-5-(pyrimidin-2-yl)-4-(4-(trifluoromethoxy)pyrazolo[1,5-a]pyridin-2-yl)-4,5,6,7-tetrahydro-1H-imidazo[4,5-c]pyridine], the AC50 was less than 0.5 µM.
With `FC(F)(F)Oc1cccn2nc([C@H]3c4nc[nH]c4CCN3c3ncccn3)cc12` [Example 2271, (R)-5-(pyrimidin-2-yl)-4-(4-(trifluoromethoxy)pyrazolo[1,5-a]pyridin-2-yl)-4,5,6,7-tetrahydro-1H-imidazo[4,5-c]pyridine], the AC50 is more than 5 µM.
For the molecule `FC(F)Oc1cccn2nc([C@H]3c4nc[nH]c4CCN3c3ccc(C(F)(F)F)cn3)cc12` [Example 2273, (R)-4-(4-(difluoromethoxy)pyrazolo[1,5-a]pyridin-2-yl)-5-(5-(trifluoromethyl)pyridin-2-yl)-4,5,6,7-tetrahydro-1H-imidazo[4,5-c]pyridine], the AC50 was more than 5 µM.
In the case of `Cc1cccc2cc([C@@H]3c4nc[nH]c4CCN3c3nnc(-c4cccnc4F)o3)nn12` [Example 2274, (S)-2-(2-fluoropyridin-3-yl)-5-(4-(7-methylpyrazolo[1,5-a]pyridin-2-yl)-1,4,6,7-tetrahydro-5H-imidazo[4,5-c]pyridin-5-yl)-1,3,4-oxadiazole], the AC50 fell in the range of 0.5 to 1 µM.
On to `Cc1cccc2cc([C@H]3c4nc[nH]c4CCN3c3nnc(-c4cccnc4F)o3)nn12` [Example 2275, (R)-2-(2-fluoropyridin-3-yl)-5-(4-(7-methylpyrazolo[1,5-a]pyridin-2-yl)-1,4,6,7-tetrahydro-5H-imidazo[4,5-c]pyridin-5-yl)-1,3,4-oxadiazole], for which the AC50 was more than 5 µM.
Regarding `Cc1cccnc1-c1nnc(N2CCc3[nH]cnc3[C@H]2c2cc3c(C(F)(F)F)cccn3n2)o1` [Example 2276, (S)-2-(3-methylpyridin-2-yl)-5-(4-(4-(trifluoromethyl)pyrazolo[1,5-a]pyridin-2-yl)-1,4,6,7-tetrahydro-5H-imidazo[4,5-c]pyridin-5-yl)-1,3,4-oxadiazole], the AC50 is less than 0.5 µM.
Regarding `Cc1cccnc1-c1nnc(N2CCc3[nH]cnc3[C@@H]2c2cc3c(C(F)(F)F)cccn3n2)o1` [Example 2277, (R)-2-(3-methylpyridin-2-yl)-5-(4-(4-(trifluoromethyl)pyrazolo[1,5-a]pyridin-2-yl)-1,4,6,7-tetrahydro-5H-imidazo[4,5-c]pyridin-5-yl)-1,3,4-oxadiazole], the AC50 is more than 5 µM.
With `Cc1cccnc1-c1nnc(N2CCc3[nH]cnc3[C@@H]2c2cc3c(C(F)F)cccn3n2)o1` [Example 2278, (R)-2-(4-(4-(difluoromethyl)pyrazolo[1,5-a]pyridin-2-yl)-1,4,6,7-tetrahydro-5H-imidazo[4,5-c]pyridin-5-yl)-5-(3-methylpyridin-2-yl)-1,3,4-oxadiazole], the AC50 was more than 5 µM.
Turning to `Cc1cccnc1-c1nnc(N2CCc3[nH]cnc3[C@H]2c2cc3c(F)cccn3n2)o1` [Example 2280, (S)-2-(4-(4-fluoropyrazolo[1,5-a]pyridin-2-yl)-1,4,6,7-tetrahydro-5H-imidazo[4,5-c]pyridin-5-yl)-5-(3-methylpyridin-2-yl)-1,3,4-oxadiazole], the AC50 was less than 0.5 µM.
Take `Cc1cccnc1-c1nnc(N2CCc3[nH]cnc3[C@@H]2c2cc3c(C4CC4)cccn3n2)o1` [Example 2282, (R)-2-(4-(4-cyclopropylpyrazolo[1,5-a]pyridin-2-yl)-1,4,6,7-tetrahydro-5H-imidazo[4,5-c]pyridin-5-yl)-5-(3-methylpyridin-2-yl)-1,3,4-oxadiazole]: the AC50 is more than 5 µM.
`Cc1cccnc1-c1nnc(N2CCc3[nH]cnc3[C@H]2c2cc3c(C4CC4)cccn3n2)o1` [Example 2283, (S)-2-(4-(4-cyclopropylpyrazolo[1,5-a]pyridin-2-yl)-1,4,6,7-tetrahydro-5H-imidazo[4,5-c]pyridin-5-yl)-5-(3-methylpyridin-2-yl)-1,3,4-oxadiazole]: the AC50 was less than 0.5 µM.
Under `Cc1cccnc1-c1nnc(N2CCc3[nH]cnc3[C@@H]2c2cc3c(C(C)C)cccn3n2)o1` [Example 2284, (R)-2-(4-(4-isopropylpyrazolo[1,5-a]pyridin-2-yl)-1,4,6,7-tetrahydro-5H-imidazo[4,5-c]pyridin-5-yl)-5-(3-methylpyridin-2-yl)-1,3,4-oxadiazole] stands more than 5 µM; under `Cc1cccnc1-c1nnc(N2CCc3[nH]cnc3[C@H]2c2cc3c(C(C)C)cccn3n2)o1` [Example 2285, (S)-2-(4-(4-isopropylpyrazolo[1,5-a]pyridin-2-yl)-1,4,6,7-tetrahydro-5H-imidazo[4,5-c]pyridin-5-yl)-5-(3-methylpyridin-2-yl)-1,3,4-oxadiazole], less than 0.5 µM.
Turning to `Cc1cccnc1-c1nnc(N2CCc3[nH]cnc3[C@@H]2c2cc3c(Cl)cccn3n2)o1` [Example 2286, (R)-2-(4-(4-chloropyrazolo[1,5-a]pyridin-2-yl)-1,4,6,7-tetrahydro-5H-imidazo[4,5-c]pyridin-5-yl)-5-(3-methylpyridin-2-yl)-1,3,4-oxadiazole], the AC50 is more than 5 µM.
Under `Fc1cccnc1-c1nnc(N2CCc3[nH]cnc3[C@H]2c2cc3c(F)cccn3n2)o1` [Example 2289, (S)-2-(4-(4-fluoropyrazolo[1,5-a]pyridin-2-yl)-1,4,6,7-tetrahydro-5H-imidazo[4,5-c]pyridin-5-yl)-5-(3-fluoropyridin-2-yl)-1,3,4-oxadiazole] stands less than 0.5 µM; under `Cc1cc(-c2nnc(C(=O)N3CCc4[nH]cnc4[C@H]3c3cc4c(C)cccn4n3)o2)n[nH]1` [Example 2291, (S)-(5-(5-methyl-1H-pyrazol-3-yl)-1,3,4-oxadiazol-2-yl)(4-(4-methylpyrazolo[1,5-a]pyridin-2-yl)-1,4,6,7-tetrahydro-5H-imidazo[4,5-c]pyridin-5-yl)methanone], 1 to 5 µM.
Take `Cc1c[nH]nc1-c1nnc(C(=O)N2CCc3[nH]cnc3[C@H]2c2cc3c(C)cccn3n2)o1` [Example 2292, (S)-(5-(4-methyl-1H-pyrazol-3-yl)-1,3,4-oxadiazol-2-yl)(4-(4-methylpyrazolo[1,5-a]pyridin-2-yl)-1,4,6,7-tetrahydro-5H-imidazo[4,5-c]pyridin-5-yl)methanone]: the half-maximal activity concentration (AC50) is less than 0.5 µM.
With `Cc1c[nH]nc1-c1nnc(C(=O)N2CCc3[nH]cnc3[C@@H]2c2cc3c(C)cccn3n2)o1` [Example 2293, (R)-(5-(4-methyl-1H-pyrazol-3-yl)-1,3,4-oxadiazol-2-yl)(4-(4-methylpyrazolo[1,5-a]pyridin-2-yl)-1,4,6,7-tetrahydro-5H-imidazo[4,5-c]pyridin-5-yl)methanone], the AC50 was more than 5 µM.
For the molecule `Cc1cc(-c2nnc(C(=O)N3CCc4[nH]cnc4[C@@H]3c3cc4c(F)cccn4n3)o2)n[nH]1` [Example 2294, (R)-(4-(4-fluoropyrazolo[1,5-a]pyridin-2-yl)-1,4,6,7-tetrahydro-5H-imidazo[4,5-c]pyridin-5-yl)(5-(5-methyl-1H-pyrazol-3-yl)-1,3,4-oxadiazol-2-yl)methanone], the AC50 was more than 5 µM.
Under `COc1cccn2nc([C@H]3c4nc[nH]c4CCN3c3ncccn3)cc12` [Example 2298, (R)-4-(4-methoxypyrazolo[1,5-a]pyridin-2-yl)-5-(pyrimidin-2-yl)-4,5,6,7-tetrahydro-1H-imidazo[4,5-c]pyridine] stands 1 to 5 µM; under `COc1cccn2nc([C@@H]3c4nc[nH]c4CCN3c3ncccn3)cc12` [Example 2299, (S)-4-(4-methoxypyrazolo[1,5-a]pyridin-2-yl)-5-(pyrimidin-2-yl)-4,5,6,7-tetrahydro-1H-imidazo[4,5-c]pyridine], less than 0.5 µM.

As usually defined, the AC50 is the concentration at which the activity in the assay is half-maximal.
